For three compounds, Activity results are on record in ChEMBL document CHEMBL4190379 (Bioorg Med Chem Lett, 2018).

The target of assay [1] is T1, ATPase family AAA domain-containing protein 2 (Homo sapiens) (UniProt Q6PL18).
T1 sequence (whole entry): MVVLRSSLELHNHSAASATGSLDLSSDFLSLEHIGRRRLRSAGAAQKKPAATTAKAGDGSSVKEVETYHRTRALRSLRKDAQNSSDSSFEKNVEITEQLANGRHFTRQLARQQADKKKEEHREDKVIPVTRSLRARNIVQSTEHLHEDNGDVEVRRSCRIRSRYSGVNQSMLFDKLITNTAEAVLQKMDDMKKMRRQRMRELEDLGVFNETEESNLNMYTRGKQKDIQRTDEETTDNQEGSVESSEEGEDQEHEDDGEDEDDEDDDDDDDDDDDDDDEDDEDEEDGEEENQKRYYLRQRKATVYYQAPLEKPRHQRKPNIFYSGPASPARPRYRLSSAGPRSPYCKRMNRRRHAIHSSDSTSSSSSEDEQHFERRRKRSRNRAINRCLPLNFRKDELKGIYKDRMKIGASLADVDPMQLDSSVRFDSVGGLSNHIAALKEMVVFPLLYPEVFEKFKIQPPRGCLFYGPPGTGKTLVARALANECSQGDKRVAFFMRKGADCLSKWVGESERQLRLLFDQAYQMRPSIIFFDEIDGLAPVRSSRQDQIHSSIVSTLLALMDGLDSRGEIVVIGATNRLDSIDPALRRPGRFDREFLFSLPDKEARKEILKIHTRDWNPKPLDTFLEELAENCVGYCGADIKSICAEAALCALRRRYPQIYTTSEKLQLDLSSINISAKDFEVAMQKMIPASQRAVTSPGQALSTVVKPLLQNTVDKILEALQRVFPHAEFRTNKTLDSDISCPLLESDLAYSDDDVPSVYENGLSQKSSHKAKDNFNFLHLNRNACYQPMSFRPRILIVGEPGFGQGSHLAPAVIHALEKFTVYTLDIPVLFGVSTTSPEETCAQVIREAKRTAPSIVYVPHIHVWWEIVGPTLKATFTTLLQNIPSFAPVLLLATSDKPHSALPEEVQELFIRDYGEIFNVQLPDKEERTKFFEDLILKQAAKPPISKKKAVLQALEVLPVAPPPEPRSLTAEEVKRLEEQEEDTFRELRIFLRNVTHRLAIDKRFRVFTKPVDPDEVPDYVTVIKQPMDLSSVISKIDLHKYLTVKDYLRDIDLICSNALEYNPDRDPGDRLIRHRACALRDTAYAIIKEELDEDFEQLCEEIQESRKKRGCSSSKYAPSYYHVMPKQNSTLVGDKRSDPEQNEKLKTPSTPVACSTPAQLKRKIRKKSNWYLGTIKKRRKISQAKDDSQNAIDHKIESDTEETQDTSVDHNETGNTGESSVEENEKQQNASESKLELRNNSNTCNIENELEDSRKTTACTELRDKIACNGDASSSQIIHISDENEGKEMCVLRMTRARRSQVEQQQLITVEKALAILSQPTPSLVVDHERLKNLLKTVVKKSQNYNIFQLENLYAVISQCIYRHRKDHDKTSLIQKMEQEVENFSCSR
Nature of the assay: Binding affinity to human ATAD2A expressed in bacterial system assessed as remaining binding level at 1 uM by BROMOscan assay relative to control.

The target of assay [2] is T2, Bromodomain-containing protein 1 (Homo sapiens) (UniProt O95696).
T2 sequence (whole entry): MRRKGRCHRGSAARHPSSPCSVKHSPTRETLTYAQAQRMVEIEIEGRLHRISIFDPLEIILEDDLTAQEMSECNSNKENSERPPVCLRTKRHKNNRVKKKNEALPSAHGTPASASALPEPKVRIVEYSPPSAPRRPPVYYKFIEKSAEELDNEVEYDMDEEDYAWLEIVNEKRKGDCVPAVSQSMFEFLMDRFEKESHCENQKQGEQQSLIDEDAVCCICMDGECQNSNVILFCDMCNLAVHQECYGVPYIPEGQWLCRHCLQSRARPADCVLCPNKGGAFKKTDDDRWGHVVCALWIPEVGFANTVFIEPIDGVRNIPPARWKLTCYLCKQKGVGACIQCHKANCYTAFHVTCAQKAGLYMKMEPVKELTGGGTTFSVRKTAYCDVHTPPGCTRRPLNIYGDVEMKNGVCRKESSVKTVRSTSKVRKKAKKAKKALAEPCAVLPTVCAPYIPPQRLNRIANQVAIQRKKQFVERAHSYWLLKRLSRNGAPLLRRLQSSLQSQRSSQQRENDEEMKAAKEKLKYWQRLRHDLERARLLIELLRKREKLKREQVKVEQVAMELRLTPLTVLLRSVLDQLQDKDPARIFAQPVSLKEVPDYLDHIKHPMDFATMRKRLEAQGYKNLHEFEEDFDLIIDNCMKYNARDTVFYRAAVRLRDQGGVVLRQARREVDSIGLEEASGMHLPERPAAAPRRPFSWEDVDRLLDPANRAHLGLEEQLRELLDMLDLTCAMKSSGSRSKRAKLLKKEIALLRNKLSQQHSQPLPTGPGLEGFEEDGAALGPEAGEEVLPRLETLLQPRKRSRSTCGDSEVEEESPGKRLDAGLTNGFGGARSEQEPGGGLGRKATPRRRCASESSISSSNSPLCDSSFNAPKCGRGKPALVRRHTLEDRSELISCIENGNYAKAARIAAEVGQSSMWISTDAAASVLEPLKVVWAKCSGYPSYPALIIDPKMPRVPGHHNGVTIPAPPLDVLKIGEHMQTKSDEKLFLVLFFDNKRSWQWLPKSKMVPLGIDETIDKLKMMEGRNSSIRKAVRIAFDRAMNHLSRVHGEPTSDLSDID
In words: Binding affinity to human BRD1 expressed in bacterial system assessed as remaining binding level at 1 uM by BROMOscan assay relative to control.

Assay [3] addresses Chromatin remodeling regulator CECR2 (Homo sapiens) (UniProt Q9BXF3). Nature of the assay: Binding affinity to human CECR2 expressed in bacterial system assessed as remaining binding level at 1 uM by BROMOscan assay relative to control.
The target of assay [4] is Bromodomain adjacent to zinc finger domain protein 2B (Homo sapiens) (UniProt Q9UIF8). Nature of the assay: Binding affinity to human BAZ2B expressed in bacterial system assessed as remaining binding level at 1 uM by BROMOscan assay relative to control.
Chain of Bromodomain adjacent to zinc finger domain protein 2B (Homo sapiens) (Q9UIF8 whole entry, the tested form may be a part): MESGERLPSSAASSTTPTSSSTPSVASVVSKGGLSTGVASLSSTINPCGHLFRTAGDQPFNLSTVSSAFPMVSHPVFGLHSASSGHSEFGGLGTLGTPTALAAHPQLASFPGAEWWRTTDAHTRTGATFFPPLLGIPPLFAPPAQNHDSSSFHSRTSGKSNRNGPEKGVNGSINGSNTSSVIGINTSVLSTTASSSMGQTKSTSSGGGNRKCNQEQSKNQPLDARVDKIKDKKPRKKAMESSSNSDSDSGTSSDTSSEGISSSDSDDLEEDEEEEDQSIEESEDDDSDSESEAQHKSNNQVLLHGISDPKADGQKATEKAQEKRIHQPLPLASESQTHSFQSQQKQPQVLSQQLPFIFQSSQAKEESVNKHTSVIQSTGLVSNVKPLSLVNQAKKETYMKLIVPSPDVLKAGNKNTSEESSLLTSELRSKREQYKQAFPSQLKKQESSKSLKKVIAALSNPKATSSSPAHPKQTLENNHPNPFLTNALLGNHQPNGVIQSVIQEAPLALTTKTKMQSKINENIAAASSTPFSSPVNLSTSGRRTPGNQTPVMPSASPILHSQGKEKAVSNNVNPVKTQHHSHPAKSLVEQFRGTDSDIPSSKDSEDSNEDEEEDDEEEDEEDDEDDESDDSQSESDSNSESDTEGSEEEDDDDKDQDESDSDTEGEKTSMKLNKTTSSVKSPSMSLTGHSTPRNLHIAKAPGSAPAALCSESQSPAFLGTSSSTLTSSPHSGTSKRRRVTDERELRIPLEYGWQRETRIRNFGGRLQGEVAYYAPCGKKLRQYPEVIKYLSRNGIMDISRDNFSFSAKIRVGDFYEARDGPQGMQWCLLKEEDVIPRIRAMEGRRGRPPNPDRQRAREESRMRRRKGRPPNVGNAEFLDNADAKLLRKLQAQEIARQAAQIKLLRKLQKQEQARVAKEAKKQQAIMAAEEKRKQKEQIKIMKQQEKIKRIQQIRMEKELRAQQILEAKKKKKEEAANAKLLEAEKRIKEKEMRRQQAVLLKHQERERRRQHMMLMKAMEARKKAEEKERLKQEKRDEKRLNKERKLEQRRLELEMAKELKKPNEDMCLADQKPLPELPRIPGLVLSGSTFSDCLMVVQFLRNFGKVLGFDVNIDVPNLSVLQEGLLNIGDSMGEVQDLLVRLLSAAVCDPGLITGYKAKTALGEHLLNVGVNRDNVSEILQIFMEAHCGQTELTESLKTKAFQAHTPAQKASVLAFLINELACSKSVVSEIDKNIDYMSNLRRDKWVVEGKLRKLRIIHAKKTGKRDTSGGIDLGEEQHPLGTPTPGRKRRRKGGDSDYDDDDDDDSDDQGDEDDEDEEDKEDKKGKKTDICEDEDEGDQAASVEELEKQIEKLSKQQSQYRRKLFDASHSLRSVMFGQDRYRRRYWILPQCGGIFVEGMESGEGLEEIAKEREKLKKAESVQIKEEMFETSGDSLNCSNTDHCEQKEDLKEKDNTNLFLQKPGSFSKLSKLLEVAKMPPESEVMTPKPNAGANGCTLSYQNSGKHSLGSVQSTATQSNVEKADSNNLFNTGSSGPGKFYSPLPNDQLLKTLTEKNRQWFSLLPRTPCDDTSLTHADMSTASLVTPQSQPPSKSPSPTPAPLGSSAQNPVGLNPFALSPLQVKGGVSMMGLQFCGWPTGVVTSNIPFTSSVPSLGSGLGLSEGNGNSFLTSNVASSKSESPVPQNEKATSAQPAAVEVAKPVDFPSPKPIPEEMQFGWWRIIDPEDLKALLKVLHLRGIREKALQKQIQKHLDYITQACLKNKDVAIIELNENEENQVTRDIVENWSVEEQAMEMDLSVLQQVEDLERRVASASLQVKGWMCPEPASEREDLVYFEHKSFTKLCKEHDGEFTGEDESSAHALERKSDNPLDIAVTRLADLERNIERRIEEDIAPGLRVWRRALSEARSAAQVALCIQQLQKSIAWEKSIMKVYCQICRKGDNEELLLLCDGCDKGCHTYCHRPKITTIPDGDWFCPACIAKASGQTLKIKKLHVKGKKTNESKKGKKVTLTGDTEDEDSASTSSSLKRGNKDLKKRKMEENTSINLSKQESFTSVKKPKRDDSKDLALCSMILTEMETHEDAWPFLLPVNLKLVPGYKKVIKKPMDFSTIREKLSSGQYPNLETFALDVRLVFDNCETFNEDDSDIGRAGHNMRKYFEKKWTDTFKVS

Chain of Chromatin remodeling regulator CECR2 (Homo sapiens) (Q9BXF3 whole entry, looked up, the tested form may be a part): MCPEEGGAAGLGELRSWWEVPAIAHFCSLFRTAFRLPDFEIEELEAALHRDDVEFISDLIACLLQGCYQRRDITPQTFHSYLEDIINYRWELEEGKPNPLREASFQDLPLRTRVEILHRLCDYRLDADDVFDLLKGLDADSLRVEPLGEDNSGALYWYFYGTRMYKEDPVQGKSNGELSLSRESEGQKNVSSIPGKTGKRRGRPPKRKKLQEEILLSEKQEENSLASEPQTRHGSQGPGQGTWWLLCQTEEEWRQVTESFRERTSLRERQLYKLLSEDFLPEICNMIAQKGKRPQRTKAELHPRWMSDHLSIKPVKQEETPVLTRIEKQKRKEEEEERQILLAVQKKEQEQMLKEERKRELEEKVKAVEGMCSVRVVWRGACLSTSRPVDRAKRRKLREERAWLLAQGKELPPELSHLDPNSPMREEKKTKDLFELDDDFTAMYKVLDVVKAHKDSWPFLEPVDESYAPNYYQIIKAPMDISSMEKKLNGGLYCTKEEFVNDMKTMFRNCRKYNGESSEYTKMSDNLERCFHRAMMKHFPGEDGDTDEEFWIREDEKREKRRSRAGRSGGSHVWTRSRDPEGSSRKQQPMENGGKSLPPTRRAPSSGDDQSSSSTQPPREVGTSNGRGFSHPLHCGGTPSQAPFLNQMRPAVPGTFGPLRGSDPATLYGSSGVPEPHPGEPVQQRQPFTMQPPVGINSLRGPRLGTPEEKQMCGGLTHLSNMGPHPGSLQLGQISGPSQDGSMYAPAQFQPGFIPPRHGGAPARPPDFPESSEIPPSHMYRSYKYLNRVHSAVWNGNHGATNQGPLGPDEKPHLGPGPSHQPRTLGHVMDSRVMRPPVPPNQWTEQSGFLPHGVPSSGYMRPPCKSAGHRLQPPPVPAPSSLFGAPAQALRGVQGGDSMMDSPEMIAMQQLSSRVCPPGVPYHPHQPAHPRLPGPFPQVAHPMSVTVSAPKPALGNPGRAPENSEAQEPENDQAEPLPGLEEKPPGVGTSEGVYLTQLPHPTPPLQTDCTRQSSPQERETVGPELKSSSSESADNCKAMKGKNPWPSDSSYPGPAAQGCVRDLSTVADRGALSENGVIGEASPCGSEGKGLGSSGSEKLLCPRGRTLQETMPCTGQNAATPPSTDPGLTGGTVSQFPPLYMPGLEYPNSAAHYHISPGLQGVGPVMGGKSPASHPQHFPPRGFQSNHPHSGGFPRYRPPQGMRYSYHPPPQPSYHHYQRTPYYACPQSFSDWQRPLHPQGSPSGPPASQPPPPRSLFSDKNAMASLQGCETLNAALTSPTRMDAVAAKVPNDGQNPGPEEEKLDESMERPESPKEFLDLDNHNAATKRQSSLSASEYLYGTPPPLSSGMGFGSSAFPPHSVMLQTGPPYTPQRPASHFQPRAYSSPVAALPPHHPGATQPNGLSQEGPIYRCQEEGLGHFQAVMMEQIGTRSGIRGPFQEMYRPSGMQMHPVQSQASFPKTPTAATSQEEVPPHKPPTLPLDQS

As to `Cn1cc2c3c(c[nH]c(=O)c31)-c1cc(CS(C)(=O)=O)ccc1N(c1ccc(F)cc1)C2`, the Activity was determined as 100% in assay [1], 98% in assay [2], 100% in assay [3] and 100% in assay [4].

With `Cn1cc2c3c(c[nH]c3c1=O)CN(c1ccc(F)cc1F)c1ccc(CS(C)(=O)=O)cc1-2`, the Activity in assay [1] was 4.6%; in assay [2] it was 87%; in assay [3], 81%; in assay [4], 70%.

With `Cn1cc2c3c(c[nH]c3c1=O)CN(c1ccccn1)c1ccc(CS(C)(=O)=O)cc1-2`, the Activity in assay [1] amounted to 68%; in assay [2], 84%; in assay [3], 67%; in assay [4], 72%.
